Results published in BindingDB's records for doi:10.1007/s10822-022-00478-x (Roche Innovation Center Basel, F. Hoffmann-La Roche Ltd., 2022).

Biological target: cAMP and cAMP-inhibited cGMP 3',5'-cyclic phosphodiesterase 10A (Homo sapiens, UniProt Q9Y233)
Test: PDE10A assay
Summary of the method: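 Scintillation proximity readout of [3H]cGMP hydrolysis (50 nM final substrate, 15 min) by 2 ng/well human PDE10A after 15 min compound preincubation at RT, pH 7.5 with MgCl2. Four-parameter logistic fit gave IC50, reported as pIC50.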

| IC50 [nM] | Structure (SMILES) |
| --- | --- |
| 53 | CCOc1cc(NC(=O)c2nc(C3CC3)cnc2Nc2cncnc2)ccn1 [Roche-Dataset for PDE10A, Compound 765] |
| 976 | CN(C)c1nc2cc(NC(=O)c3c(C(=O)O)cnn3C)ccn2n1 [Roche-Dataset for PDE10A, Compound 768] |
| 6.38 | Cc1nc2ccc(Cl)cc2nc1OCc1nc(-c2ccccc2)cn1C [Roche-Dataset for PDE10A, Compound 769] |
| 10000 | Cc1ncn(C)c1C(=O)Nc1cc(-c2ccccn2)nn1C [Roche-Dataset for PDE10A, Compound 772] |
| 2800 | Cn1nc(-c2ccccn2)cc1NC(=O)c1c(I)cc[nH]c1=O [Roche-Dataset for PDE10A, Compound 774] |
| 13 | CN(C)C(=O)Cc1csc(NC(=O)c2nc(C3CC3)cnc2Nc2cncnc2)n1 [Roche-Dataset for PDE10A, Compound 775] |
| 1680 | COc1ncc(C2CC2)nc1C(=O)Nc1cc(-c2ccccn2)nn1C [Roche-Dataset for PDE10A, Compound 776] |
| 22 | O=C(Nc1cccc(N2CCS(=O)(=O)CC2)c1)c1nc(C2CC2)cnc1Nc1cncnc1 [Roche-Dataset for PDE10A, Compound 777] |
| 10000 | O=C(Nc1ccn2nc(-c3ccccc3)nc2c1)c1ccc(Cl)cn1 [Roche-Dataset for PDE10A, Compound 778] |
| 2070 | O=C(NCCN1CCCC1=O)c1nc(C2CC2)cnc1Nc1cncnc1 [Roche-Dataset for PDE10A, Compound 779] |
| 77 | Clc1ccc2nc(CCc3nc4ccc(Cl)cn4n3)nn2c1 [Roche-Dataset for PDE10A, Compound 780] |
| 3.4 | Cc1ncc(C)n2nc(/C=C/c3nc(N4CCC[C@@H]4C(F)(F)F)nn3C)nc12 [Roche-Dataset for PDE10A, Compound 782] |
| 1060 | O=C(NCc1cc(F)cc(F)c1)c1nc(C2CC2)cnc1Nc1cncnc1 [Roche-Dataset for PDE10A, Compound 783] |
| 360 | Cc1c(Cl)cc(Cl)c2nc(CCc3cn4cccnc4n3)nn12 [Roche-Dataset for PDE10A, Compound 785] |
| 671 | CN(C)C(=O)Cn1cc(NC(=O)c2nc(C3CC3)cnc2Nc2cncnc2)cn1 [Roche-Dataset for PDE10A, Compound 787] |
| 20 | O=C1NCc2ccc(NC(=O)c3nc(C4CC4)ccc3Nc3cncnc3)cc21 [Roche-Dataset for PDE10A, Compound 788] |
| 5.32 | COCc1ccc(Nc2cncnc2)c(C(=O)Nc2cccc(-c3ccn(C)n3)c2)n1 [Roche-Dataset for PDE10A, Compound 790] |
| 916 | Cc1c(Cl)cc(Cl)c2nc(CCc3nc4ncccn4n3)nn12 [Roche-Dataset for PDE10A, Compound 791] |
| 132 | O=C(Nc1cccc(N2CCCC2)c1)c1nc(C2CC2)cnc1Nc1cncnc1 [Roche-Dataset for PDE10A, Compound 793] |
| 1110 | O=C(NCCCN1CCCC1=O)c1nc(C2CC2)cnc1Nc1cncnc1 [Roche-Dataset for PDE10A, Compound 795] |
| 376 | O=C(NCc1ccc(F)c(F)c1)c1nc(C2CC2)cnc1Nc1cncnc1 [Roche-Dataset for PDE10A, Compound 799] |
| 554 | CS(=O)(=O)c1ccc(CNC(=O)c2nc(C3CC3)cnc2Nc2cncnc2)cc1 [Roche-Dataset for PDE10A, Compound 800] |

| IC50 [nM] | Structure (SMILES) |
| --- | --- |
| 3190 | Cn1ncc(C(=O)N2CCC2)c1C(=O)Nc1cn(-c2cccc(C(F)(F)F)n2)cn1 [Roche-Dataset for PDE10A, Compound 802] |
| 728 | O=C(NCC1(c2ccccc2)CCCCC1)c1nc(C2CC2)cnc1Nc1cncnc1 [Roche-Dataset for PDE10A, Compound 804] |
| 62 | C/C(=C\c1nc2c(C)ncc(C)n2n1)c1nc(N2CCCC2)nn1C [Roche-Dataset for PDE10A, Compound 805] |
| 53 | CNC(=O)Cc1ccccc1NC(=O)c1nc(C2CC2)ccc1Nc1cncnc1 [Roche-Dataset for PDE10A, Compound 809] |
| 179 | Cc1nc2ccccc2nc1OCc1nc(-c2ccc(Cl)cc2)cn1C [Roche-Dataset for PDE10A, Compound 810] |
| 20 | O=C(Nc1nc2cccnc2s1)c1nc(C2CC2)ccc1Nc1cncnc1 [Roche-Dataset for PDE10A, Compound 811] |
| 13 | O=C(Nc1cccc(N2CCOCC2)c1)c1nc(C2CC2)cnc1Nc1cncnc1 [Roche-Dataset for PDE10A, Compound 812] |
| 10000 | Cc1ncc(C(=O)Nc2ccn3nc(-c4ccccc4)nc3c2)cn1 [Roche-Dataset for PDE10A, Compound 813] |
| 619 | CCCCc1cc(NC(=O)c2c(C(=O)N3CCC3)cnn2C)n(C2CCCC2)n1 [Roche-Dataset for PDE10A, Compound 814] |
| 8.56 | O=C(Nc1ccnc(N2CCOCC2)c1)c1nc(C2CC2)cnc1Nc1cncnc1 [Roche-Dataset for PDE10A, Compound 815] |
| 63 | CC(C)Oc1cncc(NC(=O)c2nc(C3CC3)cnc2Nc2cncnc2)c1 [Roche-Dataset for PDE10A, Compound 816] |
| 389 | NS(=O)(=O)c1ccc(CNC(=O)c2nc(C3CC3)cnc2Nc2cncnc2)cc1 [Roche-Dataset for PDE10A, Compound 817] |
| 7.58 | O=C(Nc1snnc1-c1ccccc1)c1nc(C2CC2)ccc1Nc1cncnc1 [Roche-Dataset for PDE10A, Compound 818] |
| 72 | CCn1ccc(NC(=O)c2nc(C3CC3)ccc2Nc2cncnc2)n1 [Roche-Dataset for PDE10A, Compound 819] |
| 7.9 | COc1ccc(-c2nc3cc(NC(=O)c4c(C(=O)N5CCC5)cnn4C)ccn3n2)cc1 [Roche-Dataset for PDE10A, Compound 820] |
| 135 | CC(=O)N(C)c1cccc(NC(=O)c2nc(C3CC3)cnc2Nc2cncnc2)c1 [Roche-Dataset for PDE10A, Compound 821] |
| 5050 | O=C(NC1CCN(Cc2ccccc2)CC1)c1nc(C2CC2)cnc1Nc1cncnc1 [Roche-Dataset for PDE10A, Compound 823] |
| 10000 | CCOC(=O)c1cnn(C)c1C(=O)N(C)c1ccn2nc(-c3ccccc3)nc2c1 [Roche-Dataset for PDE10A, Compound 825] |
| 5.85 | CC(=O)N1CCc2ccc(NC(=O)c3nc(C4CC4)cnc3Nc3cncnc3)cc21 [Roche-Dataset for PDE10A, Compound 827] |
| 29 | CN(C)CCn1ccc(NC(=O)c2nc(C3CC3)cnc2Nc2cncnc2)n1 [Roche-Dataset for PDE10A, Compound 828] |
| 10 | O=C(Nc1cccc(C(=O)N2CCCC2)n1)c1nc(C2CC2)cnc1Nc1cncnc1 [Roche-Dataset for PDE10A, Compound 830] |
| 24 | O=C(Nc1cccc(N2CCCC2=O)c1)c1nc(C2CC2)ccc1Nc1cncnc1 [Roche-Dataset for PDE10A, Compound 831] |

| IC50 [nM] | Structure (SMILES) |
| --- | --- |
| 32 | O=C(Nc1nc(CN2CCCCC2)cs1)c1nc(C2CC2)cnc1Nc1cncnc1 [Roche-Dataset for PDE10A, Compound 832] |
| 46 | Cn1ncc(C(=O)N2CCC2)c1C(=O)Nc1cn(-c2ccccn2)cn1 [Roche-Dataset for PDE10A, Compound 833] |
| 169 | Cc1ncc(C)n2nc(CCc3nc(-n4cccn4)nn3C)nc12 [Roche-Dataset for PDE10A, Compound 836] |
| 499 | O=C(NCc1cccc(F)c1)c1nc(C2CC2)cnc1Nc1cncnc1 [Roche-Dataset for PDE10A, Compound 837] |
| 38 | O=C(NCc1cn2ccsc2n1)c1nc(C2CC2)cnc1Nc1cncnc1 [Roche-Dataset for PDE10A, Compound 838] |
| 403 | O=C(NCCNS(=O)(=O)c1ccccc1)c1nc(C2CC2)cnc1Nc1cncnc1 [Roche-Dataset for PDE10A, Compound 839] |
| 331 | CSc1nc2cc(NC(=O)c3c(C(=O)N4CCC4)cnn3C)ccc2s1 [Roche-Dataset for PDE10A, Compound 840] |
| 117 | Cc1ncc(C)n2nc(CCc3nc(N(C)CC4CC4)nn3C)nc12 [Roche-Dataset for PDE10A, Compound 841] |
| 1780 | COCCN(C)c1nc(CCc2nc3c(C)ncc(C)n3n2)nn1C [Roche-Dataset for PDE10A, Compound 847] |
| 1230 | CC(C)c1nc2cc(NC(=O)c3c(C(=O)O)cnn3C)ccn2n1 [Roche-Dataset for PDE10A, Compound 848] |
| 48 | CN1C(=O)c2ccc(NC(=O)c3nc(C4CC4)ccc3Nc3cncnc3)cc2C1=O [Roche-Dataset for PDE10A, Compound 849] |
| 50 | Cn1cc(-c2ccccc2)nc1CCc1nc2c(cnn2C)c(=O)[nH]1 [Roche-Dataset for PDE10A, Compound 854] |
| 134 | O=C(Nc1cncc(OC(F)F)c1)c1nc(C2CC2)cnc1Nc1cncnc1 [Roche-Dataset for PDE10A, Compound 855] |
| 314 | CN(C)CCn1nccc1NC(=O)c1nc(C2CC2)cnc1Nc1cncnc1 [Roche-Dataset for PDE10A, Compound 857] |
| 156 | O=C(Nc1ccn(CC(F)(F)F)n1)c1nc(Cl)ccc1Nc1cncnc1 [Roche-Dataset for PDE10A, Compound 859] |
| 49 | O=C(Nc1ccnn1CCO)c1nc(C2CC2)ccc1Nc1cncnc1 [Roche-Dataset for PDE10A, Compound 860] |
| 333 | Cc1c(Cl)cc(Cl)c2nc(CCc3nn(C)cc3Cl)nn12 [Roche-Dataset for PDE10A, Compound 861] |
| 322 | Cc1ccc(CNC(=O)c2cnn(C)c2C(=O)Nc2ccn3cc(-c4ccccc4)nc3n2)nc1 [Roche-Dataset for PDE10A, Compound 862] |
| 117 | COCCn1ccc(NC(=O)c2nc(Cl)ccc2Nc2cncnc2)n1 [Roche-Dataset for PDE10A, Compound 864] |
| 43 | COCCn1nccc1NC(=O)c1nc(C2CC2)ccc1Nc1cncnc1 [Roche-Dataset for PDE10A, Compound 868] |
| 9.64 | CC(=O)c1cc(NC(=O)c2nc(C3CC3)cnc2Nc2cncnc2)ccc1F [Roche-Dataset for PDE10A, Compound 869] |
